The target in experiment [1] is T1, FGFR4 (Homo sapiens, UniProt P22455).
T1 construct: purchased Eurofins Discovery Services (Dundee, United Kingdom)
Description: Kinase inhibition IC50 assay (Eurofins). It is filed as biochemical. As to the method:
(§1) Median-inhibitory concentration (IC50) and inhibition ratio of kinases by RK-019 was assessed by Eurofins Discovery Services (Dundee, United Kingdom) using the ATP-site competition binding assay in vitro. Firstly, gradient concentration of RK-019 against FGFRs, including FGFR1, FGFR2, FGFR3, and FGFR4, were tested. IC50 value was calculate by the GraphPad Prism software (v8.4.3, GraphPad Software, California, United States). Then, to measure the selectivity prolife of RK-019, a panel of 422 recombinant human kinases was screened at a concentration of 1 µM RK-019. Kinase MAP was drawn by webtools from Cell Signaling Technology, Inc. (www.cellsignal.com).
(§2) All data were analyzed by the GraphPad Prism 8.4.3 (GraphPad Software, California, United States), and was shown as mean value ±SD or SEM, details will be illustrated in the figure legends. Dose-effect curve analysis (IC50 calculation) was performed by the Graphpad Prism software. First, concentration value was converted to log value, followed by non-linear regression analyze which is log(inhibitor) vs. normalized response—Variable slope, was performed to calculate the IC50 values. The statistically significant p values were calculated by student’s t-test or two-way ANOVA and were shown in graphics which were labeled as follows: *p < 0.05; **p < 0.01; ***p < 0.001.

Experiment [2] has as its target T2, FGFR1 (Homo sapiens, UniProt P11362).
T2 construct: purchased Eurofins Discovery Services (Dundee, United Kingdom)
Description: Kinase inhibition IC50 assay (Eurofins). Type of experiment: biochemical. As to the method:
as §1, §2

Experiment [3] deals with T3, FGFR3 (Homo sapiens, UniProt P22607).
T3 construct: purchased Eurofins Discovery Services (Dundee, United Kingdom)
Description: Kinase inhibition IC50 assay (Eurofins). Type of experiment: biochemical. As to the method:
as §1, §2

The target in experiment [4] is T4, FGFR2 (Homo sapiens, UniProt P21802).
T4 construct: purchased Eurofins Discovery Services (Dundee, United Kingdom)
Description: Kinase inhibition IC50 assay (Eurofins). Type of experiment: biochemical. As to the method: as §1, §2

Experiment [5] has as its target T5, Rsk1(r) (Rattus norvegicus, UniProt Q63531).
T5 construct: purchased Eurofins Discovery Services (KinaseProfiler)
Put plainly: Kinase selectivity panel. It is filed as biochemical. The settings on record: read-out: Inhibition(%) @ 1 µM RK-019.

Experiment [6] addresses T6, cKit(h) (Homo sapiens, UniProt P10721).
T6 construct: purchased Eurofins Discovery Services (KinaseProfiler)
Description: Kinase selectivity panel. It is filed as biochemical. The settings on record: read-out: Inhibition(%) @ 1 µM RK-019. As to the method:
as §1

In experiment [7] the target is T7, CDK5/p25(h) (Homo sapiens, UniProt Q00535).
T7 construct: purchased Eurofins Discovery Services (KinaseProfiler)
T7 sequence (Q00535 whole entry): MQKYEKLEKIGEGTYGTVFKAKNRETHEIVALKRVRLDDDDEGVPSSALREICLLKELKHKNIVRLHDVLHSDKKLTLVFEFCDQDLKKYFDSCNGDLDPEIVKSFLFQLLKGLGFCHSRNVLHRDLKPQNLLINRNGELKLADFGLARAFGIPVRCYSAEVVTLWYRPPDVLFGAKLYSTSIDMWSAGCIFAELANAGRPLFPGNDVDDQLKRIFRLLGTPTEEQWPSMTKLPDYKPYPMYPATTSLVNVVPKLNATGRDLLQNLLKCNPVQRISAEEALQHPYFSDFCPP
T7 sequence (Q15078 99-307 partner limits assumed): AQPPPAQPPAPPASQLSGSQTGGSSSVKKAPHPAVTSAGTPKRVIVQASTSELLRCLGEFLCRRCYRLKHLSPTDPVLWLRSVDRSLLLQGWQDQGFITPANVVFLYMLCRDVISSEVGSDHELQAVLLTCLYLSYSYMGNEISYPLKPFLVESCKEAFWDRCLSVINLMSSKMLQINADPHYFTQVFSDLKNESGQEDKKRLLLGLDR
Put plainly: Kinase selectivity panel. It is filed as biochemical. The following applies: read-out: Inhibition(%) @ 1 µM RK-019. As to the method:
as §1

Experiment [8] concerns the target T8, CDK4/cyclinD3(h) (Homo sapiens, UniProt P11802).
T8 construct: purchased Eurofins Discovery Services (KinaseProfiler)
Description: Kinase selectivity panel. The settings on record: read-out: Inhibition(%) @ 1 µM RK-019. Type of experiment: biochemical. As to the method:
as §1

The target in experiment [9] is T9, HIPK1(h) (Homo sapiens, UniProt Q86Z02).
T9 construct: purchased Eurofins Discovery Services (KinaseProfiler)
T9 sequence (Q86Z02 whole entry): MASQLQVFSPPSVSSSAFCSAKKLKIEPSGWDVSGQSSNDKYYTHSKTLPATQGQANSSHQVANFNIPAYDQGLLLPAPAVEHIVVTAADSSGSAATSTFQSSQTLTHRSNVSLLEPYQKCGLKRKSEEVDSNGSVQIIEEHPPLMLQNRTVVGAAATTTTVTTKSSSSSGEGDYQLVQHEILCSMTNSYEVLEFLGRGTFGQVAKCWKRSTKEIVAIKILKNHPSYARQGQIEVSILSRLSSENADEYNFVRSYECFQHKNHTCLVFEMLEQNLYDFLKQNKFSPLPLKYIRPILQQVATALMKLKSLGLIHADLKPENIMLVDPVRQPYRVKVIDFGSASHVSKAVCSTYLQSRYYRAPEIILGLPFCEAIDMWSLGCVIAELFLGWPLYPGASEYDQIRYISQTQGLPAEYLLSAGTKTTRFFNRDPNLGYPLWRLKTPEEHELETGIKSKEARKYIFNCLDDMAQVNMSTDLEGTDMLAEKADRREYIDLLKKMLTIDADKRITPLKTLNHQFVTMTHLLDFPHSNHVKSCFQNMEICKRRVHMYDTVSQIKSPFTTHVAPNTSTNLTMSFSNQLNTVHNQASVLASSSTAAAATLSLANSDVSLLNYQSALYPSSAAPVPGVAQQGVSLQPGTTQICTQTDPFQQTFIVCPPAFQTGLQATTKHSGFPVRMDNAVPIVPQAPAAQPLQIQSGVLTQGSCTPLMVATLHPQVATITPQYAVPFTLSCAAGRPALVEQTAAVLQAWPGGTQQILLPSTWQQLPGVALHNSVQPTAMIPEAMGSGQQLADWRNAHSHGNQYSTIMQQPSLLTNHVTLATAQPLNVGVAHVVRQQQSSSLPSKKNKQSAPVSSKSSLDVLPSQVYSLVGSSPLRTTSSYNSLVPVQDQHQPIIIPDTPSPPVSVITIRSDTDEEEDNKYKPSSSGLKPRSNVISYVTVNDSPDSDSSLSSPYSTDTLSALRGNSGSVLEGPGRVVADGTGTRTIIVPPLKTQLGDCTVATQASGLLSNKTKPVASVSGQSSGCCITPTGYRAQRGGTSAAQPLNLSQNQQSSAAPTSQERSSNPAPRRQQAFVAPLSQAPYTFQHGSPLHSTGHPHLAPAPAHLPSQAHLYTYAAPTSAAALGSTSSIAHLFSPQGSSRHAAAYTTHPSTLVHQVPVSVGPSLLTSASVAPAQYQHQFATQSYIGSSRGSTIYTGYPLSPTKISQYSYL
Put plainly: Kinase selectivity panel. Type of experiment: biochemical. The settings on record: read-out: Inhibition(%) @ 1 µM RK-019. As to the method: as §1

The target of experiment [10] is T10, Src(T341M)(h) (Homo sapiens, UniProt P12931, T341M).
T10 construct: purchased Eurofins Discovery Services (KinaseProfiler)
Put plainly: Kinase selectivity panel. It is filed as biochemical. The settings on record: read-out: Inhibition(%) @ 1 µM RK-019. As to the method:
as §1

Experiment [11] addresses T11, IRAK4(h) (Homo sapiens, UniProt Q9NWZ3).
T11 construct: purchased Eurofins Discovery Services (KinaseProfiler)
Put plainly: Kinase selectivity panel. It is filed as biochemical. The settings on record: read-out: Inhibition(%) @ 1 µM RK-019. As to the method:
as §1

Experiment [12] has as its target T12, SAPK2a(T106M)(h) (Homo sapiens, UniProt Q16539, T106M).
T12 construct: purchased Eurofins Discovery Services (KinaseProfiler)
Description: Kinase selectivity panel. It is filed as biochemical. The following applies: read-out: Inhibition(%) @ 1 µM RK-019. As to the method: as §1

The target of experiment [13] is T13, BTK(h) (Homo sapiens, UniProt Q06187).
T13 construct: purchased Eurofins Discovery Services (KinaseProfiler)
T13 sequence (Q06187 whole entry): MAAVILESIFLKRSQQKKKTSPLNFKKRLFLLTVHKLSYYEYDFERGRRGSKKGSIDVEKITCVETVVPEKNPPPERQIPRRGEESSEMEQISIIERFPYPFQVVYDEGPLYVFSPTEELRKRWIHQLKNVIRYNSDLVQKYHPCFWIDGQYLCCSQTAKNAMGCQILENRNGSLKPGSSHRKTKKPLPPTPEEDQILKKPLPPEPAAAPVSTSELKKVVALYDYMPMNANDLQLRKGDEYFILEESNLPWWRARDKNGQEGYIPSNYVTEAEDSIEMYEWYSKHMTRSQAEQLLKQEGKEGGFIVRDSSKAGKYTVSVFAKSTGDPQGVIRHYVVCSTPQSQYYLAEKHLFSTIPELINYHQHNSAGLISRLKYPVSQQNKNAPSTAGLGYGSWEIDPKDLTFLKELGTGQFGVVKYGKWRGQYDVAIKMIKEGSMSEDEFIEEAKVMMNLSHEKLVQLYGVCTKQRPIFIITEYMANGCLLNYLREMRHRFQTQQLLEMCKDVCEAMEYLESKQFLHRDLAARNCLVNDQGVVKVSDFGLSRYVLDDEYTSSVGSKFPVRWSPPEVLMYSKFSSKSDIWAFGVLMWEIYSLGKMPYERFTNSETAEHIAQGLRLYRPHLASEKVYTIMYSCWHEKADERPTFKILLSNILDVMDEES
Description: Kinase selectivity panel. It is filed as biochemical. The following applies: read-out: Inhibition(%) @ 1 µM RK-019. As to the method: as §1

Experiment [14] has as its target T14, TTBK2(h) (Homo sapiens, UniProt Q6IQ55).
T14 construct: purchased Eurofins Discovery Services (KinaseProfiler)
Description: Kinase selectivity panel. It is filed as biochemical. The settings on record: read-out: Inhibition(%) @ 1 µM RK-019. As to the method: as §1

In experiment [15] the target is T15, Haspin(h) (Homo sapiens, UniProt Q8TF76).
T15 construct: purchased Eurofins Discovery Services (KinaseProfiler)
Description: Kinase selectivity panel. Type of experiment: biochemical. The settings on record: read-out: Inhibition(%) @ 1 µM RK-019. As to the method: as §1

For experiment [16], the target named is T16, CDK2/cyclinE(h) (Homo sapiens, UniProt P24941).
T16 construct: purchased Eurofins Discovery Services (KinaseProfiler)
Description: Kinase selectivity panel. The settings on record: read-out: Inhibition(%) @ 1 µM RK-019. It is filed as biochemical. As to the method:
as §1

Experiment [17] has as its target T17, CHK2(R145W)(h) (Homo sapiens, UniProt O96017, R145W).
T17 construct: purchased Eurofins Discovery Services (KinaseProfiler)
Description: Kinase selectivity panel. It is filed as biochemical. The settings on record: read-out: Inhibition(%) @ 1 µM RK-019. As to the method:
as §1

For experiment [18], the system named is SNU-16 cells. Description: Cell viability assay (MTT). It is filed as cell-based. The following applies: Homo sapiens; SNU-16, mean ± SD. As to the method:
(§3) For suspension and mixed suspension adherent cells, the cells were seeded in 96-well plate with different cell density, 0.5×10^4 per well for 96 h treatment, 1×10^4 per well for 72 h treatment, 2×10^4 per well for 48 h treatment, and 5×10^4 per well for 24 h treatment. Different doses of RK-019 were treated as soon as the cell seeded in 96-well plates. For adherent cells, the cells were seeded in a 96-well plate with 3×10^3 per well and cultured overnight followed by administrated different doses of RK-019. After indicated time treatment, MTT solution at a final concentration of 0.5 mg/ml was added and incubated 2–4 h at 37°C. Formazan formed by the living cells was dissolved with DMSO and the absorbance was measured using a microplate spectrophotometer (MultiskanFC, ThermoFisher, Waltham, MA, United States) at 570 nm. IC50 value of RK-019 was calculated by the Graphpad Prism software.
(§4) All data were analyzed by the GraphPad Prism 8.4.3 (GraphPad Software, California, United States), and was shown as mean value ±SD or SEM, details will be illustrated in the figure legends. Dose-effect curve analysis (IC50 calculation) was performed by the Graphpad Prism software. […] The statistically significant p values were calculated by student’s t-test or two-way ANOVA and were shown in graphics which were labeled as follows: *p < 0.05; **p < 0.01; ***p < 0.001.

In experiment [19] the test system is KATO III cells. Put plainly: Cell viability assay (MTT). Type of experiment: cell-based. The following applies: Homo sapiens, mean ± SD. As to the method: as §3, §4
Experiment [20] deals with ROCK-II(r). Description: Kinase selectivity panel. It is filed as biochemical, rat. The following applies: read-out: Inhibition(%) @ 1 µM RK-019. As to the method:
as §1

Experiment [21] has as its system FGFR2 phosphorylation and downstream proteins in KATO III cells. Description: Western blot of FGFR signal proteins. It is filed as cell-based. The settings on record: 24 h. As to the method: The cells treated with RK-019 at indicated concentration for 24 h were harvested and lysed in 1× RIPA buffer (20e188, MilliporeSigma, Burlington, MA, United States), which contained protease inhibitor cocktail (B14001, Bimake, Houston, TX, United States) and phosphatase inhibitor cocktail (B15001, Bimake), for 30 min and equalized by concentration of the total protein before loading. Using sodium dodecyl sulphate - polyacrylamide gel electrophoresis (SDS-PAGE) to separate the protein sample and transfer to PVDF membranes (ISEQ00010, MilliporeSigma). The membranes were incubated with relevant primary antibody and corresponding HRP-labeled secondary antibody. Then, chemiluminescence was used to detect target bands. ImageJ software were used to make the gradation analysis.
In western blot, results analysis of relative phosphorylation quantification level, data were firstly calculated according to the following formular: Protein Relative phosphorylation data = Gp/Gup. Gp means the gradation level of target phosphorylation protein band and Gup means the gradation level of target total protein band. Then, the relative phosphorylation level can be calculated by the following formular: Protein Relative expression level = Pt/Pc ×100%. Pt means the relative phosphorylation data or target group and Pc means the relative phosphorylation data of control group.
For orientation: A western blot detects proteins with antibodies after separation by electrophoresis.

Values joined by “and” are separate entries in the source; they are usually repeats but may differ in a detail not shown here. Equal values may be shown once.

T2 sequence (P11362 22-822): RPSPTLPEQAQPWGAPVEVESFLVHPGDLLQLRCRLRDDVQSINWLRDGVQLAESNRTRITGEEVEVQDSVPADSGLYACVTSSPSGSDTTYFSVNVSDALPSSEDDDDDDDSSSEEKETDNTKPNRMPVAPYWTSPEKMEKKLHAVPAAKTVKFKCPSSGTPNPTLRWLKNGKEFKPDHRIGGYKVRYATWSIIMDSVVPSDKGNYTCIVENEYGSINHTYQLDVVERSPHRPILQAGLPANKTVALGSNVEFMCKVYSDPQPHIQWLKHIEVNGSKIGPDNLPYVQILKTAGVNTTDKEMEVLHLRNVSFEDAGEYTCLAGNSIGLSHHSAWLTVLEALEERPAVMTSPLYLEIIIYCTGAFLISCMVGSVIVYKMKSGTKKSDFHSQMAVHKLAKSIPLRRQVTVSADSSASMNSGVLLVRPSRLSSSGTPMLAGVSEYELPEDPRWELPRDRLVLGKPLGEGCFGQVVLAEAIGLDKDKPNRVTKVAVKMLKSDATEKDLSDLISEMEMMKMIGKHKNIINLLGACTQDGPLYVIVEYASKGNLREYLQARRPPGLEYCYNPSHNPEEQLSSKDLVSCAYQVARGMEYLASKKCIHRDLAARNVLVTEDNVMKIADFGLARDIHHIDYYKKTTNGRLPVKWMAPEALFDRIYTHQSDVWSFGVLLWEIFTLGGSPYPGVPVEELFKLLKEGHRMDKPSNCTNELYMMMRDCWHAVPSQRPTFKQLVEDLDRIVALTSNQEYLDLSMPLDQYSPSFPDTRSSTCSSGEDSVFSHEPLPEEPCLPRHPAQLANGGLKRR
T6 sequence (P10721 26-976): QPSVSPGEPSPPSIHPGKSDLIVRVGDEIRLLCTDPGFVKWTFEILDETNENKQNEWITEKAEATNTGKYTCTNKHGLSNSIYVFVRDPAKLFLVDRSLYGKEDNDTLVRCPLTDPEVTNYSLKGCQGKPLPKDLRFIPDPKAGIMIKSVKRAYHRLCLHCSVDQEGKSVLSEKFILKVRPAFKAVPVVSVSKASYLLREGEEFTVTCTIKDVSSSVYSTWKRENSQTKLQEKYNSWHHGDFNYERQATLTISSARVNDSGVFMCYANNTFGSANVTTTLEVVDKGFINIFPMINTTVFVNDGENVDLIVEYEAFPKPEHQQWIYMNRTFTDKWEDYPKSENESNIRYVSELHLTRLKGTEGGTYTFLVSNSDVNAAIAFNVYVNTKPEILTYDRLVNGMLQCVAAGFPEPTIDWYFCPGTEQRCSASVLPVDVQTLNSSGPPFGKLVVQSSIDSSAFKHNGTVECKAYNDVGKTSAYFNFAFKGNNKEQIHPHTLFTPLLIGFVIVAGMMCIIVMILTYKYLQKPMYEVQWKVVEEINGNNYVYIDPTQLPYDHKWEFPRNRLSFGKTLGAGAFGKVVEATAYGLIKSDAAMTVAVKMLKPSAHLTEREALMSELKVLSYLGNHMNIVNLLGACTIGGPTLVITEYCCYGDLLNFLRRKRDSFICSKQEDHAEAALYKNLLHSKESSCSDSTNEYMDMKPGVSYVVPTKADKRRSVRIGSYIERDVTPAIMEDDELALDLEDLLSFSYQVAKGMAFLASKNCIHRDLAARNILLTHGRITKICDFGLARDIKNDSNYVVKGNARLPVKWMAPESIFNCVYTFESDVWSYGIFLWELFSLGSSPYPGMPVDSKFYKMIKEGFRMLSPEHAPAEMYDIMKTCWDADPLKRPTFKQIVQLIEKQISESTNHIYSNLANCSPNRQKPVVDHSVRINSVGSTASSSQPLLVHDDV
T1 sequence (P22455 22-802): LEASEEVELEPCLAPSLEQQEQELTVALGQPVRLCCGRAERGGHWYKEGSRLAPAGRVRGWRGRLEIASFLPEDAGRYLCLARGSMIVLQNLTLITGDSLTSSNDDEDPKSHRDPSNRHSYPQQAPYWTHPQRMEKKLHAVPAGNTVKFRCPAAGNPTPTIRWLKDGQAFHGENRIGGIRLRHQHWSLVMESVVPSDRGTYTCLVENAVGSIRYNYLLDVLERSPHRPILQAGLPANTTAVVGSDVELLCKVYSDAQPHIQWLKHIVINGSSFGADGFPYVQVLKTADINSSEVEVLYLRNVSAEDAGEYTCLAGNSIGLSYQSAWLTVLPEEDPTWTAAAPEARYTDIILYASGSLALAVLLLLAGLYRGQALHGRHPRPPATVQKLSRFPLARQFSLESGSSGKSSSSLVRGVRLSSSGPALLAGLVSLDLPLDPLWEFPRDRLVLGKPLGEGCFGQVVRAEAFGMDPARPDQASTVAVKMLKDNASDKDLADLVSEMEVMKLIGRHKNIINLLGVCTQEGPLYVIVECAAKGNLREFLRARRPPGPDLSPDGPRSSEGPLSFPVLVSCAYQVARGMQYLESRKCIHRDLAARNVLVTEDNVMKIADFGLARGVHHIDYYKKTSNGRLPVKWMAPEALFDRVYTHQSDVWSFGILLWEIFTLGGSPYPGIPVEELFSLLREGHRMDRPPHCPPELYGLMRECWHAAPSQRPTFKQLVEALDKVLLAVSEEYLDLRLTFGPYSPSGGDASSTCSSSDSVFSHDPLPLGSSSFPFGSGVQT

What is called IC50 is the midpoint of a concentration-inhibition curve. Low readings indicate greater potency, high ones weaker potency. Turning to `COc1cc(OC)cc(N(CCN[C@H](C)CO)c2ccc3ncc(-c4cnn(C)c4)c(=O)n3c2)c1` [RK-019, (R)-7-((3,5-dimethoxyphenyl) (2-((1-hydroxypropan-2-yl)amino)ethyl)amino)-3-(1-methyl-1H-pyrazol-4-yl)-4H-pyrido [1,2-a]pyrimidin-4-one], the IC50 is 40.7 nM in [1]; 8.9 nM and 9.1 nM in experiment [2]; 26.3 nM in experiment [3]; 4.6 nM in [4]; 3.96 ± 4.4 nM in [18]; 5.45 ± 5.3 nM in experiment [19]. For the same compound, the activity at 1 µM in experiment [5] was determined as 96%; in [6], 73%; in experiment [7], 112%; in experiment [8] it was 101%; in experiment [9], 93%; in experiment [10], 98%. In addition, the activity at 1 µM in [11] was 100%; in [12], 90%; in experiment [13] it was 72%; in experiment [14] it was 82%; in experiment [15], 105%; in [16], 123%. In addition, the activity at 1 µM in experiment [17] is 100%. The activity in experiment [20] was determined as 91%. For the same compound, the “protein expression level of phosphorylated FGFR2 T653/T654” value in experiment [21] (KATO III, 0.1, 1, 5, 10, and 100 nM) is “decreased”. Moreover, in [21] (KATO III), the “AKT and Erk phosphorylation levels” value is “decreased”. The “FRS2 and PLCγ phosphorylation levels” value in experiment [21] (KATO III) was “significantly decreased”.

These data come from publication PMC9532703, “A novel small molecule RK-019 inhibits FGFR2-amplification gastric cancer cell proliferation and induces apoptosis in vitro and in vivo” (Frontiers in Pharmacology, 2022).
